Assay results from patent publication US7951232B2, “Surface coating compositions and methods” (Elevance Renewable Sciences, Inc., priority 2006, dated 2011).

Legend:
[1] = system: Pseudomonas aeroginosa, ATCC 15442; experiment: Time-Kill Procedure (ASTM), rate of kill; format: cell-based, Pseudomonas aeruginosa
Procedure: The rate of kill for these organisms upon exposure to 9-decenoic acid was determined using the American Society for Testing and Materials (ASTM) procedure entitled “Standard Test Method for the Assessment of Microbiocidal Activity of Test Materials Using a Time-Kill Procedure”, October 1998. This procedure incorporates the recommendations described in the “Manual of Clinical Microbiology,”5th ed., edited by A. B. Balows et al., ASM, Washington, and is directed by the Federal Register, June 1994.
Stock cultures were transferred into TSB and incubated for 18-24 hours at 37±2° C. A second transfer was made onto TSA plates and were incubated for 18-24 hours at 37±2° C. The plates were removed from incubation and the bacterial growth washed from the agar surface using Butterfield's Phosphate Buffered Dilution Water (PBDW). The bacterial suspension was adjusted to contain approximately 10^8 Colony Forming Units (CFU)/ml with PBDW using spectrophometric methods extant in the laboratory.
The concentrated 9-decenoic acid was diluted 1:40 in filter sterilized isopropanol to yield a 2.5% stock solution. Subsequent dilutions to the 9-decenoic acid stock solutions were made with sterile Deionized Water (DI) to achieve concentrations of 0.1%, 0.05%, 0.01%, and 0.001%. The pH was determined for each dilution; pH values ranged from 4.4-4.1. Additionally, the 9-decenoic acid stock solution was adjusted to pH 7 with 1 N NaOH and serially diluted with sterile DI to achieve concentrations of 1.0%, 0.75% and 0.5%.
Compliant with the ASTM procedure cited, for each challenge microorganism a 9.9 ml aliquot of the prepared 9-decenoic acid suspension was added to a sterile tube. A 0.1 ml aliquot of the standardized inoculum was added to the 9-decenoic acid solution representing the start of the test exposure. The inoculated 9-decenoic acid solution was immediately mixed thoroughly. The inoculated suspension was held at room temperature for 0.5, 2, 5, 7 and 10 minute exposure times for tests run at ˜pH 4. The pH 7 tests were held at room temperature for 0.5 and 2 minutes.
At each exposure sample time, a 1.0 ml aliquot of the inoculated 9-decenoic acid suspension was transferred to 9.0 ml of D/E Neutralizing Broth. Additional ten-fold serial dilutions were made in PBDW and plated in duplicate on TSA. All plates were incubated for 48 hours at 37±2° C. and visually examined for growth. The plates are enumerated, recorded and log kill determined for each time point.
The following study controls were conducted: culture purity, neutralizer sterility, initial suspension population, test population, neutralization verification and a negative control using isopropanol. Culture purity was verified by performing a streak plate for isolated colonies on the each culture used. All cultures were determined to be pure based on consistent colony morphology typical for the test organism. The neutralizer sterility was confirmed by no growth in an incubated sample.
The population of the initial and test culture were determined by serial dilution, plating and enumerating after incubation. The initial suspension were determined to be ≧10^4 CFU/ml. The test culture population was used for calculation of the log reduction achieved at each time point.
Neutralization effectiveness was verified by a filtration test. For each organism, four tubes were prepared with 9 ml D/E Neutralizing Broth and fewer than 100 CFU/ml of the organism. A 1.0 ml aliquot of prepared 9-decenoic acid was added to each tube. Immediately, the entire contents of 2 tubes were filtered through a filtration apparatus and rinsed with sterile diluent. The remaining 2 tubes were held at room temperature for 30 minutes and then the entire contents were filtered using the same procedure. The filters were aseptically transferred to TSA plates and incubated for 48 hours at 37±2° C. and visually examined for growth.
This control was inoculated, subcultured and incubated as in the test procedure.

[2] = system: Trichoderma virens ATCC 9645; experiment: Dry film preservative test, growth on PDA agar surface; format: cell-based
Procedure: (§1) The efficacy of 9-decenoic acid and the methyl ester of 9-decenoic acid as a dry film preservative was determined through the incubation of Trichoderma virens ATCC 9645, Cladosporium cladosporiodes ATCC 16022 and Aureobasidium pullulans ATCC 12536 in the presence of varying concentrations of 9-decenoic acid or the methyl ester of 9-decenoic acid on an agar surface.
(§2) Fungal spores were hydrated overnight in 0.1% Tween 80 and then plated on Potato Dextrose Agar (PDA) and incubated at 25-30° C. for 6 days. The spores were washed from the surface with 5 mls of 0.1% Tween 80 and enumerated.
(§3) PDA plates with prepared according to the manufactures instructions through sterilization. The agar was tempered to approximately 50° C. and filter sterilized 9-decenoic acid was added to achieve concentrations of 0.1, 0.5 and 1.0% in the agar. Additionally, one concentration of the methyl ester of 9-decenoic acid (0.5%) was also prepared. The agar was thoroughly mixed and poured into sterile petri plates and allowed to solidify.
(§4) The agar plates were inoculated with the spore solution to achieve 10^2 spores/plate. The plates were incubated at 25-30° C. in Ziploc bags with a wet paper towel to keep the moisture level high. The plates were examined for growth after 4, 7, 16, 24 and 31 days. The percent coverage of growth on the agar surface was recorded at each sample point.

[3] = system: Cladosporium cladosporiodes ATCC 16022; experiment: as above; format: cell-based
Procedure: as §1, §2, §3, §4

Q: With `C=CCCCCCCCC(=O)O` [9-decenoic acid] as the compound, how does the “Log reduction of organisms after exposure” value (from here on “Log reduction of organisms”) ([1]; 0.01%, pH 4.4, exposure 0.5 minutes) read?
A: >6.1 log

Q: And the “Log reduction of organisms” value ([1]; 0.01%, pH 4.4, exposure 2 minutes)?
A: >6.1 log

Q: What about the “Log reduction of organisms” value ([1]; 0.01%, pH 4.4, exposure 5 minutes) of the same compound?
A: >6.1 log

Q: What about the “Log reduction of organisms” value ([1]; 0.01%, pH 4.4, exposure 7 minutes) of the same compound?
A: >6.1 log

Q: And the “Log reduction of organisms” value ([1]; 0.01%, pH 4.4, exposure 10 minutes)?
A: >6.1 log

Q: What about the “Log reduction of organisms” value ([1]; 0.05%, pH 4.1, exposure 0.5 minutes) of the same compound?
A: >6.1 log

Q: And the “Log reduction of organisms” value ([1]; 0.05%, pH 4.1, exposure 2 minutes)?
A: >6.1 log

Q: What about the “Log reduction of organisms” value ([1]; 0.05%, pH 4.1, exposure 5 minutes) of the same compound?
A: >6.1 log

Q: What about the “Log reduction of organisms” value ([1]; 0.05%, pH 4.1, exposure 7 minutes) of the same compound?
A: >6.1 log

Q: What about the “Log reduction of organisms” value ([1]; 0.05%, pH 4.1, exposure 10 minutes) of the same compound?
A: >6.1 log

Q: And the “Log reduction of organisms” value ([1]; 0.1%, pH 4.1, exposure 0.5 minutes)?
A: >6.1 log

Q: What about the “Log reduction of organisms” value ([1]; 0.1%, pH 4.1, exposure 2 minutes) of the same compound?
A: >6.1 log

Q: What about the “Log reduction of organisms” value ([1]; 0.1%, pH 4.1, exposure 5 minutes) of the same compound?
A: >6.1 log

Q: What about the “Log reduction of organisms” value ([1]; 0.1%, pH 4.1, exposure 7 minutes) of the same compound?
A: >6.1 log

Q: What about the “Log reduction of organisms” value ([1]; 0.1%, pH 4.1, exposure 10 minutes) of the same compound?
A: >6.1 log

Q: What about the “Percentage coverage of agar surface” value ([2]; 0.1% in PDA agar, 4 days) of the same compound?
A: 0%

Q: And the “Percentage coverage of agar surface” value ([2]; 0.1% in PDA agar, 7 days)?
A: 0%

Q: What about the “Percentage coverage of agar surface” value ([2]; 0.1% in PDA agar, 16 days) of the same compound?
A: 0%

Q: What about the “Percentage coverage of agar surface” value ([2]; 0.1% in PDA agar, 24 days) of the same compound?
A: 0%

Q: What about the “Percentage coverage of agar surface” value ([2]; 0.1% in PDA agar, 31 days) of the same compound?
A: 0%

Q: And the “Percentage coverage of agar surface” value ([2]; 0.5% in PDA agar, 4 days)?
A: 0%

Q: What about the “Percentage coverage of agar surface” value ([2]; 0.5% in PDA agar, 7 days) of the same compound?
A: 0%

Q: What about the “Percentage coverage of agar surface” value ([2]; 0.5% in PDA agar, 16 days) of the same compound?
A: 0%

Q: And the “Percentage coverage of agar surface” value ([2]; 0.5% in PDA agar, 24 days)?
A: 0%

Q: And the “Percentage coverage of agar surface” value ([2]; 0.5% in PDA agar, 31 days)?
A: 0%

Q: And the “Percentage coverage of agar surface” value ([2]; 1.0% in PDA agar, 4 days)?
A: 0%

Q: What about the “Percentage coverage of agar surface” value ([2]; 1.0% in PDA agar, 7 days) of the same compound?
A: 0%

Q: What about the “Percentage coverage of agar surface” value ([2]; 1.0% in PDA agar, 16 days) of the same compound?
A: 0%

Q: And the “Percentage coverage of agar surface” value ([2]; 1.0% in PDA agar, 24 days)?
A: 0%

Q: And the “Percentage coverage of agar surface” value ([2]; 1.0% in PDA agar, 31 days)?
A: 0%

Q: What about the “effectiveness as dry film preservative” value ([2]; at 0.1% for up to 31 days) of the same compound?
A: effective

Q: And the “Percentage coverage of agar surface” value ([3]; 0.1% in PDA agar, 4 days)?
A: 0%

Q: And the “Percentage coverage of agar surface” value ([3]; 0.1% in PDA agar, 7 days)?
A: 0%

Q: And the “Percentage coverage of agar surface” value ([3]; 0.1% in PDA agar, 16 days)?
A: 0%

Q: And the “Percentage coverage of agar surface” value ([3]; 0.1% in PDA agar, 24 days)?
A: 0%

Q: What about the “Percentage coverage of agar surface” value ([3]; 0.1% in PDA agar, 31 days) of the same compound?
A: 0%

Q: What about the “Percentage coverage of agar surface” value ([3]; 0.5% in PDA agar, 4 days) of the same compound?
A: 0%

Q: What about the “Percentage coverage of agar surface” value ([3]; 0.5% in PDA agar, 7 days) of the same compound?
A: 0%

Q: And the “Percentage coverage of agar surface” value ([3]; 0.5% in PDA agar, 16 days)?
A: 0%

Q: What about the “Percentage coverage of agar surface” value ([3]; 0.5% in PDA agar, 24 days) of the same compound?
A: 0%

Q: What about the “Percentage coverage of agar surface” value ([3]; 0.5% in PDA agar, 31 days) of the same compound?
A: 0%

Q: What about the “Percentage coverage of agar surface” value ([3]; 1.0% in PDA agar, 4 days) of the same compound?
A: 0%

Q: What about the “Percentage coverage of agar surface” value ([3]; 1.0% in PDA agar, 7 days) of the same compound?
A: 0%

Q: And the “Percentage coverage of agar surface” value ([3]; 1.0% in PDA agar, 16 days)?
A: 0%

Q: And the “Percentage coverage of agar surface” value ([3]; 1.0% in PDA agar, 24 days)?
A: 0%

Q: What about the “Percentage coverage of agar surface” value ([3]; 1.0% in PDA agar, 31 days) of the same compound?
A: 0%

Q: What about the “effectiveness as dry film preservative” value ([3]; at 0.1% for up to 31 days) of the same compound?
A: effective
